The values below come from PubChem BioAssay (NCI).

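Dose response: 5 concentrations. Exposure: 48 h. Format: 96-well plates. Endpoint: linear interpolation; highest concentration if not reached. TGI: total growth inhibition.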

Some test systems named below: DMS 114 small cell lung; M19-MEL melanoma; SF-539 CNS; NCI-H460 lung; HOP-18 NSCLC; NCI-H23 lung; HOP-92 NSCLC; DMS 273 small cell lung; OVCAR-4 ovarian; DLD-1 colon; SN12K1 renal; RXF 393 renal; KM20L2 colon; SNB-78 CNS; P388 leukemia; XF 498 CNS.
What all share (assay): NCI tumour cell line growth inhibition, 48 h

With `Cc1c2cc[n+](C)c(C)c2cc2c1[nH]c1ccccc12`, the TGI came to 10.4 µM in the test with DMS 114 small cell lung; 11.9 µM in the test with M19-MEL melanoma; 46.2 µM with SF-539 CNS; 26.5 µM with NCI-H460 lung; 11.8 µM with HOP-18 NSCLC; 16.3 µM in the test with NCI-H23 lung. In addition, the TGI with HOP-92 NSCLC was 50.8 µM; in the test with DMS 273 small cell lung, 39.1 µM; in the test on OVCAR-4 ovarian, 43.3 µM; in the test with DLD-1 colon it was greater than 100 µM; with SN12K1 renal, 16.8 µM; in the test on RXF 393 renal it was greater than 100 µM. Also, the values for the TGI in the test on KM20L2 colon, in the test on SNB-78 CNS and in the test with P388 leukemia were 44.5 µM, 72.2 µM and 86.6 µM, respectively.

Turning to `CCCCCCCCCCCC[S+](C)C`, the TGI was 13.4 µM in the test with DMS 114 small cell lung; 6.45 µM with M19-MEL melanoma; 19.4 µM with SF-539 CNS; 33.2 µM with NCI-H460 lung; 14.9 µM in the test with HOP-18 NSCLC; 19.7 µM in the test on NCI-H23 lung. Moreover, the TGI in the test with HOP-92 NSCLC was 9.48 µM; in the test with DMS 273 small cell lung it was 17.2 µM; with OVCAR-4 ovarian, 18.8 µM; with DLD-1 colon, 25.9 µM; in the test on SN12K1 renal it was 18.8 µM; in the test on RXF 393 renal, 9.38 µM. The TGI was 20.9 µM in the test on KM20L2 colon, 26.6 µM in the test on SNB-78 CNS, 6.71 µM in the test with XF 498 CNS and 3.1 µM with P388 leukemia.
